Source: patent US4737517A, “Coumarin derivatives, pharmaceutical compositions containing the same, and the use thereof in the treatment of cancer” (FIDIA, S.p.A., priority 1983, dated 1988)
Structures can show the parent of a compound that is named as a salt.

System: platelet hyper-aggregation induced by ADP
Assay: Inhibition of ADP-induced platelet hyperaggregation in vitro (Born's method, aggregometer ELVI 840)
Format: cell-based, New Zealand rabbits
Details: Oryctolagus cuniculus, 0.5 h, ADP 20 μg/ml, 100 γ/ml of active compound, rabbit PRP, incubated 30 minutes at 37° C, read-out: Inhibition of platelet hyper-aggregation induced by ADP
Method: Two separate centrifugations are effected (at 1000 rpm and at 6000 rpm), thus obtaining PRP ([…]) and PPP ([…]); the first is diluted with the second in order to obtain a platelet concentration of 300,000 per mm^3 (the count is effected in a Buerker apparatus). The compounds with a platelet antiaggregating activity of the present invention are added at the desired concentrations and incubated for 30 minutes at 37° C. with the aggregating agents. […] The various compounds represented by the numbers in the first column are identifiable by the numbers in the second column which refer to the examples described below in this specification.

SMILES | inhibition at 100 µg/mL [%]
C=CCc1c(OC(C)(C)C(=O)OCC)c(CN2CCOCC2)cc2c(-c3ccccc3)cc(=O)oc12 [Compound 52, Ethyl ester of 2-[4-phenyl-6-(4-morpholinylmethyl)-8-allylcumarin-7-yl]oxy-2-methylpropionic acid hydrochloride] | 22
Cc1cc(=O)oc2c(C)c(O)c(CN(C)C)cc12 [Compound 130, 4,8-dimethyl-6-dimethylaminomethyl-7-hydroxycumarin hydrochloride] | 29
Cc1cc(=O)oc2c(Cl)c(O)c(CN(C)C)cc12 [Compound 132, 4-methyl-6-dimethylaminomethyl-7-hydroxy-8-chlorocumarin hydrochloride] | 13
C=CCc1c(OCC(=O)OCC)c(CN2CCOCC2)cc2c(-c3ccccc3)cc(=O)oc12 [Compound 51, Ethyl ester of [4-phenyl-6-(4-morpholinylmethyl)-8-allylcumarin-7-yl]oxy acetic acid hydrochloride] | 37
C=CCc1c(O)c(CN(CC)CC)cc2c(C)cc(=O)oc12 [Compound 121, 4-methyl-6-diethylaminomethyl-7-hydroxy-8-allylcumarin hydrochloride] | 51
C=CCc1c(O)c(CN2CCOCC2)cc2c(-c3ccccc3)cc(=O)oc12 [Compound 44, 4-phenyl-6-(4-morpholinylmethyl)-7-hydroxy-8-allylcumarin hydrochloride] | 20
C=CCc1c(O)c(CN2CCCC(O)C2)cc2c(C)cc(=O)oc12 (stereo not shown) [Compound 201, 4-methyl-6-[(3-hydroxy-1-piperidinyl)methyl]-7-hydroxy-8-allylcumarin hydrochloride] | 32
CCOC(=O)C(C)(C)Oc1c(CN2CCOCC2)cc2c(C)c(CCN(CC)CC)c(=O)oc2c1Cl [Compound 68, Ethyl ester of 2-[3-(2-diethylaminoethyl)-4-methyl-6-(4-morpholinylmethyl)-8-chlorocumarin-7-yl]oxy-2-methylpropionic acid dihydrochloride] | 41
O=c1cc(-c2ccccc2)c2cc(CN3CCOCC3)c(O)c(Cl)c2o1 [Compound 102, 4-phenyl-6-(4-morpholinylmethyl)-7-hydroxy-8-chlorocumarin hydrochloride] | 12
CCN(CC)CCc1c(C)c2cc(CN3CCOCC3)c(OC)c(Cl)c2oc1=O [Compound 105, 3-(2-diethylaminoethyl)-4-methyl-6-(4-morpholinylmethyl)-7-methoxy-8-chlorocumarin dihydrochloride] | 28
C=CCc1c(O)c(CN2CCCC2)cc2c(C)cc(=O)oc12 [Compound 117, 4-methyl-6-(1-pyrrolidinylmethyl)-7-hydroxy-8-allylcumarin hydrochloride] | 44
C=CCOc1c(CN2CCOCC2)cc2c(C)c(CCN(CC)CC)c(=O)oc2c1Cl [Compound 67, 3-(2-diethylaminoethyl)-4-methyl-6-(4-morpholinylmethyl)-7-allyloxy-8-chlorocumarin hydrochloride] | 18
C=CCc1c(O)c(CN2CCN(CCO)CC2)cc2c(-c3ccccc3)cc(=O)oc12 [Compound 49, 4-phenyl-6-[[4-(2-hydroxyethyl)-1-piperazinyl]methyl]-7-hydroxy-8-allylcumarin dihydrochloride] | 25
CCOC(=O)COc1c(CN2CCOCC2)cc2c(C)c(CCN(CC)CC)c(=O)oc2c1Cl [Compound 62, Ethyl ester of [3-(2-diethylaminoethyl)-4-methyl-6-(4-morpholinylmethyl)-8-chlorocumarin-7-yl]oxyacetic acid dihydrochloride] | 23
Cc1cc(=O)oc2c(Cl)c(O)c(CN3CCOCC3)cc12 [Compound 69, 4-methyl-6-(4-morpholinylmethyl)-7-hydroxy-8-chlorocumarin hydrochloride] | 29
C=CCc1c(O)c(CN2CCOCC2)cc2c(C)cc(=O)oc12 [Compound 25, 4-methyl-6-(4-morpholinylmethyl)-7-hydroxy-8-allylcumarin hydrochlorode] | 19
Cc1cc(=O)oc2c(C)c(O)c(CN3CCOCC3)cc12 [Compound 188, 4,8-dimethyl-6-(4-morpholinylmethyl)-7-hydroxycoumarin hydrochloride] | 19
CCN(CC)Cc1cc2c(C)cc(=O)oc2c(Cl)c1O [Compound 76, 4-methyl-6-diethylaminomethyl-7-hydroxy-8-chlorocumarin hydrochloride] | 27
C=CCOc1c(CN2CCOCC2)cc2c(-c3ccccc3)cc(=O)oc2c1CC=C [Compound 50, 4-phenyl-6-(4-morpholinylmethyl)-7-allyloxy-8-allylcumarin hydrochloride] | 25
C=CCc1c(OC(C)(C)C(=O)OCC)c(CN2CCOCC2)cc2c(C)cc(=O)oc12 [Compound 29, Ethyl ester of the acid 2-[4-methyl-6-(4-morpholinylmethyl)-8-allylcumarin-7-yl]oxy-2-methylpropionic hydrochloride] | 19
C=CCc1c(OCC(=O)OCC)c(CN2CCOCC2)cc2c(C)cc(=O)oc12 [Compound 27, Ethyl ester of the acid [4-methyl-6-(4-morpholinylmethyl)-8-allylcumarin-7-yl]oxyacetic] | 32
C=CCOc1c(CN2CCOCC2)cc2c(C)cc(=O)oc2c1CC=C [Compound 28, 4-methyl-6-(4-morpholinylmethyl)-7-allyloxy-8-allylcumarin hydrochloride] | 54
C=CCc1c(O)c(CN2CCC(O)CC2)cc2c(C)cc(=O)oc12 [Compound 200, 4-methyl-6-[(4-hydroxy-1-piperidinyl)methyl]-7-hydroxy-8-allylcumarin hydrochloride] | 21
C=CCc1c(O)c(CN2CCCCC2)cc2c(C)cc(=O)oc12 [Compound 124, 4-methyl-6-(1-piperidinylmethyl)-7-hydroxy-8-allylcumarin hydrochloride] | 38
CCN(CC)CCc1c(C)c2cc(CN3CCOCC3)c(O)c(Cl)c2oc1=O [Compound 58, 3-(2-diethylaminoethyl)-4-methyl-6-(4-morpholinylmethyl)-7-hydroxy-8-chlorocumarin dihydrochloride] | 25
